Experiments:
[1] = Inhibition of CoQ-CoQH2 aberrant metabolite formation during red-ox recycling, HPLC; type: physicochemical; conditions: in vitro
Method: Methanolic solution of coenzyme Q10 (1 mg/ml) was reduced by NaBH4 to pH 8 when the yellow solution became colorless. About 1 mg of 3,8-(OH)2-DBP was added to the solution and the mixture was analyzed by HPLC at different time intervals (0-80 min). A control CoQ10, without 3,8-(OH)2-DBP, was prepared similarly and analyzed at different time intervals (0-80 min).
Column—NovaPak RP C18 [250×4 mm]
(§1) Mobile phase—Methanol:Acetonitrile:Ethanol 30:30:40
Detection—PDA 275 nm for CoQ10
Reduced CoQ10 (CoQH2) has a tendency to rapidly autoxidize in the presence of air. […] The aberrant metabolites increased rapidly with time (Table 10).

[2] = Stability of reduced CoQ10 (CoQH2) by 3,8-(OH)2-DBP at different pH, HPLC; type: physicochemical
Method: Two mg of solid CoQ10 (SRL, India), in an airtight vial was dissolved in 1 ml of methanol. After thorough vortexing, 5 mg of solid NaBH4 (Merck India) was added, 1 mg at a time, to the yellow colored solution of CoQ10 in methanol and kept in an ice-bath for a few minutes. The vial was kept shut to avoid contact with air but opened occasionally to avoid generation of pressure inside due to accumulation of hydrogen. After the reduction reaction, a clear colorless solution was obtained to which methanolic solution of 3,8-(OH)2-DBP with a concentration of 1 mg/ml (>90% pure) was added in a ratio of 1:1 to obtain a final concentration of the mixture—reduced CoQ10 […] DBP 0.5 mg/ml. This solution was analyzed by HPLC for reduced CoQ10 content at different time intervals. A control was prepared in similar fashion except that no DBP was added. The pH of the solutions was determined to be 8 using pH paper. To obtain solutions of reduced CoQ10 with pH 7 and pH 3, aliquots of concentrated HCl were added to the methanolic solution of reduced CoQ10 at pH 8. Afterwards, a solution of DBP was added and analysis by HPLC at different time intervals was conducted, as before.
as §1
Detection—PDA 290 nm for reduced CoQ10

[3] = test system: Blood levels of ATP and energy related indices; test: Blood ATP and energy related indices in mice after forced swimming stress; type: in vivo, Swiss albino mice
Method: Swiss albino mice (20±2 g) were fed orally with—(a) 3,8-(OH)2-DBP and (b) 3-OH-DBP (each 25 mg/Kg b.w.), per day, for 7 days. In case of the controls, only vehicle (0.8% carboxymethyl cellulose in water) was administered for seven days of the experiment. The animals were subjected to ‘forced swimming’ for 30 minutes on the 7th day of the experiment [Pliakas, A. M., Carlson, R. R., Neve, R. L., Konradi, C., Nestler, E. J. and Carlezon, W. A. 2001. J. Neurosci., 21(18), 7397-7403]. Immediately after the swimming, blood was collected from all the animals for analysis of ATP and related nucleotides by HPLC [Smolenska, Z., Kaznowska, Z., Zarowny, D., Simmonds, H. A. and Smolenski, R. T. 1999. Rheumatology, 38, 997-1002; Komarova, S. V., Mosharov, E. V., Vitvitsky, V. M. and Ataullakhanov, F. I. 1999. Blood Cell Mol. Dis., 25(13), 170-179; Marquardt, D. L., Gruber, H. E. and Wasserman, S. I. 1984. Proc. Natl. Acad. Sci., 81, 6192-6196]. AEC (adenylate energy charge) was calculated according to the method of Atkinson and Walton [Atkinson D E & Walton G M, Adenosine triphosphate conservation in metabolic regulation, J Biol Chem, 242 (1967) 3239] and TAN (total adenine nucleotides) was calculated according to an established method [Spencer M K & Katz A, Role of glycogen in control of glycolysis and IMP formation in human muscle during exercise, Am J Physiol, 260 (1991) E859].

[4] = test system: stress-induced lipid peroxidation of mouse brain; test: Stress-induced lipid peroxidation of mouse brain (thiobarbituric acid reaction); type: in vivo, Swiss albino mice; conditions: oral each 5 mg/Kg b.w. per day for 5 days, hypoxic stress, control 1.169
Method: Swiss albino mice (20±g) were fed orally with—(a) 3,8-(OH)2-DBP; (b) CoQ10; (c) a combination of 3,8-(OH)2-DBP and CoQ10 and (d) 3,8-(OH)2-DBP and CoQ10 in a clathrated form with fusoms (each 5 mg/Kg b.w.), per day, for 5 days. The animals were subjected to hypoxic stress for 1 hour each day for 3 days from the 3rd day of the experiment. After the stipulated time-period, brain and liver of the animals were collected and mitochondria from the liver were separated as described previously (Liu Y, Deng F, Zhao R and Qu S, Chemosphere, 40(8):851-854, 2000). Lipid peroxidation in brain and liver-mitochondria was estimated by the method of Ohkawa et al. (Ohkawa H, Ohishi N and Yagi K, Assay for lipid peroxides in animal tissues by thiobarbituric acid reaction. Anal. Biochem., 95:351-358, 1979).

Structure (SMILES): O=c1oc2cc(O)ccc2c2ccc(O)cc12 [3,8-(OH)2-DBP, 3,8-dihydroxydibenzo-α-pyrone]
- aberrant metabolite formation of CoQH2 in the presence of 3,8-(OH)2-DBP, in words [1]: did not form any aberrant metabolite for a long time
- Relative percentage of aberrant metabolites in presence of 3,8-(OH)2-DBP ([1]; pH 8, 0 minutes): 0%
- Relative percentage of aberrant metabolites in presence of 3,8-(OH)2-DBP ([1]; pH 8, 40 minutes): 0%
- Relative percentage of aberrant metabolites in presence of 3,8-(OH)2-DBP ([1]; pH 8, 80 minutes): 0%
- Regenerated CoQ10 in presence of 3,8-(OH)2-DBP ([2]; autoxidation of CoQH2, pH 8, 0 min): 0 µg/mL
- Regenerated CoQ10 in presence of 3,8-(OH)2-DBP ([2]; autoxidation of CoQH2, pH 8, 20 min): 10.63 µg/mL
- Regenerated CoQ10 in presence of 3,8-(OH)2-DBP ([2]; autoxidation of CoQH2, pH 8, 40 min): 37.37 µg/mL
- Regenerated CoQ10 in presence of 3,8-(OH)2-DBP ([2]; autoxidation of CoQH2, pH 8, 60 min): 99.55 µg/mL
- Reduced CoQ10 remaining in presence of DBP ([2]; pH 3, 0 hour): 100.00%
- Reduced CoQ10 remaining in presence of DBP ([2]; pH 3, 48 hour): 79.27%
- Reduced CoQ10 remaining in presence of DBP ([2]; pH 3, 72 hour): 73.91%
- Reduced CoQ10 remaining in presence of DBP ([2]; pH 7, 0 hour): 100.00%
- Reduced CoQ10 remaining in presence of DBP ([2]; pH 7, 48 hour): 10.79%
- Reduced CoQ10 remaining in presence of DBP ([2]; pH 7, 72 hour): 6.33%
- Reduced CoQ10 remaining in presence of DBP ([2]; pH 8, 0 min, DBP 0.5 mg/ml): 100.00%
- Reduced CoQ10 remaining in presence of DBP ([2]; pH 8, 40 min, DBP 0.5 mg/ml): 93.44%
- Reduced CoQ10 remaining in presence of DBP ([2]; pH 8, 60 min, DBP 0.5 mg/ml): 80.21%
- Reduced CoQ10 remaining in presence of DBP ([2]; pH 8, 80 min, DBP 0.5 mg/ml): 66.57%
- Reduced CoQ10 remaining in presence of DBP ([2]; pH 8, 100 min, DBP 0.5 mg/ml): 51.85%
- protection of reduced CoQ10 from oxidative degradation, in words ([2]; pH range 3 to 8): significantly protects
- content of ATP, AEC values and ATP/ADP ratio (in blood), in words ([3]; albino mice engaged in forced swimming): significant improvement only in some parameters
- ATP ([3]; blood, forced swimming, 25 mg/Kg p.o. 7 days, mean ± SEM of 6, control 0.60 ± 0.01): 0.68 ± 0.03 µM
- TAN ([3]; blood, forced swimming, 25 mg/Kg p.o. 7 days, mean ± SEM of 6, control 0.79 ± 0.01): 0.86 ± 0.03 µM
- AEC ([3]; blood, forced swimming, 25 mg/Kg p.o. 7 days, mean ± SEM of 6, control 0.86 ± 0.003): 0.88 ± 0.003
- ATP/ADP ratio ([3]; blood, forced swimming, 25 mg/Kg p.o. 7 days, mean ± SEM of 6, control 3.84 ± 0.09): 4.30 ± 0.12
- OD Values at 532 nm (lipid peroxidation) [4]: 1.119
